T1: N-acylethanolamine acid amidase (NAAA) (Rattus norvegicus, UniProt Q5KTC7)
T1 sequence (Q5KTC7 34-130): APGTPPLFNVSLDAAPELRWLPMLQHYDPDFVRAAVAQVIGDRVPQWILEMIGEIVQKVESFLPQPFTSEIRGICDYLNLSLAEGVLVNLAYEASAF
T1 sequence (Q5KTC7 131-362): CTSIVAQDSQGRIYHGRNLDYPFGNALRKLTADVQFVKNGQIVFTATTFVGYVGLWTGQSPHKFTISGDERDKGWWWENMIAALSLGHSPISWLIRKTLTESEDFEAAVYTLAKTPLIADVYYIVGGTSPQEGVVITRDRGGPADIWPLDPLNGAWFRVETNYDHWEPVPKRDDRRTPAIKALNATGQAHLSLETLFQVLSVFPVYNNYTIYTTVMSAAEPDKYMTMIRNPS


What was measured:
[1] = target: T1, N-acylethanolamine acid amidase (NAAA); assay: LC/MS enzyme activity assay in HEK-rNAAA cell preparations; assay type: biochemical
[2] = substrate: CCCCCC/C=C\CCCCCCCCC(=O)NCCO; assay: Michaelis-Menten analysis by LC/MS of heptadecenoic acid formation; assay type: biochemical, Rattus norvegicus

Molecule | IC50 [1] | Vmax [2]
C[C@@H]1OC(=O)[C@@H]1NC(=O)OCCCCCc1ccccc1 [ARN077, 5-phenylpentyl N-[(2S,3R)-2-methyl-4-oxo-oxetan-3-yl] carbamate] | 11 nM | –
N-acylethanolamine acid amidase (NAAA) (Rattus norvegicus) (protein) chain 1: APGTPPLFNVSLDAAPELRWLPMLQHYDPDFVRAAVAQVIGDRVPQWILEMIGEIVQKVESFLPQPFTSEIRGICDYLNLSLAEGVLVNLAYEASAF chain 2: CTSIVAQDSQGRIYHGRNLDYPFGNALRKLTADVQFVKNGQIVFTATTFVGYVGLWTGQSPHKFTISGDERDKGWWWENMIAALSLGHSPISWLIRKTLTESEDFEAAVYTLAKTPLIADVYYIVGGTSPQEGVVITRDRGGPADIWPLDPLNGAWFRVETNYDHWEPVPKRDDRRTPAIKALNATGQAHLSLETLFQVLSVFPVYNNYTIYTTVMSAAEPDKYMTMIRNPS | – | 0.0154 µmol/min/mg

From paper PMC3723234 (Pain, 2012)
